# Measurements as given in patent US9908886B2 (Agency for Science, Technology and Research, priority 2012, dated 2018).
# Structures can show the parent of a compound that is named as a salt.
# How the values were obtained:
# MNK1 = MNK1 (Homo sapiens, UniProt Q9BUB5); assay: In vitro MNK kinase assay (Caliper LabChip mobility shift); type: biochemical; settings: enzymatic, 1.2 mM ATP; read-out: IC50 Mnk1
# MNK2 = MNK2 (Homo sapiens (Human), UniProt Q9HBH9); assay: as above; type: biochemical; settings: enzymatic, 250 μM ATP; read-out: IC50 Mnk2
# Chain of MNK2 (Q9HBH9 84-388): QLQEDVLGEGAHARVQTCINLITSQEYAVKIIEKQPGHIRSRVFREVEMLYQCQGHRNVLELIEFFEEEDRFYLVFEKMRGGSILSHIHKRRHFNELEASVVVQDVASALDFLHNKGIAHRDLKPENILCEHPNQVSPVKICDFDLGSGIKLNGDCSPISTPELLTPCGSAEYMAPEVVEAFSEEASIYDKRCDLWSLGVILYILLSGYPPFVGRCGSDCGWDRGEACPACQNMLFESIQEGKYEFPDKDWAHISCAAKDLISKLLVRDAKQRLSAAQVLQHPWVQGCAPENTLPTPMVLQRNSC
IC50 (MNK1),IC50 (MNK2),SMILES
< 1000 nM,< 100 nM,"CNc1cc(-c2ccc3ncc(-c4ccc(C#N)cc4)n3c2)ccc1C(=O)N1CCOCC1 [Example 151, 4-(6-(3-(methylamino)-4-(morpholine-4-carbonyl)phenyl)imidazo[1,2-a]pyridin-3-yl)benzonitrile]"
< 100 nM,< 100 nM,"N#Cc1ccc(-c2cnc3ccc(-c4ccc(C(=O)N5CCC(N6CCOCC6)CC5)cc4)cn23)cc1 [Example 134, 4-(6-(4-(4-morpholinopiperidine-1-carbonyl)phenyl)imidazo[1,2-a]pyridin-3-yl)benzonitrile]"
< 100 nM,< 100 nM,"CN(CC(=O)N1CCOCC1)C(=O)c1ccc(-c2ccc3ncc(-c4ccc(C#N)cc4)n3c2)cc1 [Example 101, 4-(3-(4-cyanophenyl)imidazo[1,2-a]pyridin-6-yl)-N-methyl-N-(2-morpholino-2-oxoethyl)benzamide]"
< 1000 nM,< 100 nM,"CC1(C)CCN(C(=O)c2ccc(-c3cn4c(-c5ccc(C(N)=O)cc5)cnc4cn3)cc2)CC1 [Example 3, 4-(6-(4-(4,4-dimethylpiperidine-1-carbonyl)phenyl)imidazo[1,2-a]pyrazin-3-yl)benzamide]"
< 1000 nM,< 1000 nM,"N#Cc1ccc(-c2cnc3cnc(-c4ccc(C(=O)N5CCC(O)CC5)cc4)cn23)cc1 [Example 15, 4-(6-(4-(4-hydroxypiperidine-1-carbonyl)phenyl)imidazo[1,2-a]pyrazin-3-yl)benzonitrile]"
< 100 nM,< 100 nM,"CCC1(N)CCN(C(=O)c2ccc(-c3ccc4ncc(-c5ccc(C#N)cc5)n4c3)cc2)CC1 [Example 113, 4-(6-(4-(4-amino-4-ethylpiperidine-1-carbonyl)phenyl)imidazo[1,2-a]pyridin-3-yl)benzonitrile]"
< 100 nM,< 100 nM,"N#Cc1ccc(-c2cnn3ccc(-c4ccc(C(=O)N5CCOCC5)c(O)c4)nc23)cc1 [Example 187, 4-(5-(3-hydroxy-4-(morpholine-4-carbonyl)phenyl)pyrazolo[1,5-a]pyrimidin-3-yl)benzonitrile]"
< 100 nM,< 100 nM,"CNC1CCN(C(=O)c2ccc(-c3ccc4ncc(-c5ccc(C#N)cc5)n4n3)cc2)CC1 [Example 60, 4-(6-(4-(4-(methylamino)piperidine-1-carbonyl)phenyl)imidazo[1,2-b]pyridazin-3-yl)benzonitrile]"
< 100 nM,< 100 nM,"CN1CCN(C(=O)c2ccc(-c3ccc4ncc(-c5ccc(C#N)cc5)n4c3)cc2N)CC1 [Example 146, 4-(6-(3-amino-4-(4-methylpiperazine-1-carbonyl)phenyl)imidazo[1,2-a]pyridin-3-yl)benzonitrile]"
< 100 nM,< 100 nM,"CS(=O)(=O)NC1CCN(C(=O)c2ccc(-c3ccc4ncc(-c5ccc(C#N)cc5)n4c3)cc2)CC1 [Example 111, N-(1-(4-(3-(4-cyanophenyl)imidazo[1,2-a]pyridin-6-yl)benzoyl)piperidin-4-yl)methanesulfonamide]"
< 100 nM,< 100 nM,"CN1CCN(C(=O)c2ccc(-c3ccc4ncc(-c5ccc(C#N)cc5)n4c3)cc2N(C)C)CC1 [Example 147, 4-(6-(3-(dimethylamino)-4-(4-methylpiperazine-1-carbonyl)phenyl)imidazo[1,2-a]pyridin-3-yl)benzonitrile]"
< 100 nM,< 100 nM,"CC1(O)CCN(C(=O)c2ccc(-c3ccc4ncc(-c5ccc(C#N)cc5)n4c3)cc2)CC1 [Example 106, 4-(6-(4-(4-hydroxy-4-methylpiperidine-1-carbonyl)phenyl)imidazo[1,2-a]pyridin-3-yl)benzonitrile]"
< 1000 nM,< 1000 nM,"CC(C)(C)N1CCN(C(=O)c2ccc(-c3cn4c(-c5ccc(C#N)cc5)cnc4cn3)cc2)CC1 [Example 26, 4-(6-(4-(4-tert-butylpiperazine-1-carbonyl)phenyl)imidazo[1,2-a]pyrazin-3-yl)benzonitrile]"
< 100 nM,< 100 nM,"N#Cc1ccc(-c2cnn3ccc(-c4ccc(C(=O)N5CCNCC5)cc4)nc23)cc1 [Example 183, 4-(5-(4-(piperazine-1-carbonyl)phenyl)pyrazolo[1,5-a]pyrimidin-3-yl)benzonitrile]"
< 100 nM,< 100 nM,"CN1CCN(C(=O)c2ccc(-c3ccc4ncc(-c5ccc(C#N)cc5)n4n3)cc2Cl)CC1 [Example 72, 4-(6-(3-chloro-4-(4-methylpiperazine-1-carbonyl)phenyl)imidazo[1,2-b]pyridazin-3-yl)benzonitrile]"
< 1000 nM,< 1000 nM,"N#Cc1ccc(-c2cnc3ccc(-c4ccc(C(=O)N5CCOCC5)c(F)c4)cn23)cc1 [Example 162, 4-(6-(3-fluoro-4-(morpholine-4-carbonyl)phenyl)imidazo[1,2-a]pyridin-3-yl)benzonitrile]"

IC50 (MNK1),IC50 (MNK2),SMILES
< 1000 nM,< 1000 nM,"CN(C)C1CCN(C(=O)c2ccc(-c3cn4c(-c5ccc(C#N)cc5)cnc4cn3)cc2)CC1 [Example 21, 4-(6-(4-(4-(dimethylamino)piperidine-1-carbonyl)phenyl)imidazo[1,2-a]pyrazin-3-yl)benzonitrile]"
< 100 nM,< 100 nM,"N#Cc1ccc(-c2cnc3ccc(-c4ccc(C(=O)N5CCNCC5)cc4)cn23)cc1 [Example 165, 4-(6-(4-(piperazine-1-carbonyl)phenyl)imidazo[1,2-a]pyridin-3-yl)benzonitrile]"
< 100 nM,< 100 nM,"NC1CCN(C(=O)c2ccc(-c3ccc4ncc(-c5ccc(Cl)cc5)n4c3)cc2)CC1 [Example 174, (4-aminopiperidin-1-yl)(4-(3-(4-chlorophenyl)imidazo[1,2-a]pyridin-6-yl)phenyl)methanone]"
< 1000 nM,< 1000 nM,"CNC1CCN(C(=O)c2ccc(-c3cn4c(-c5ccc(C#N)cc5)cnc4cn3)cc2)CC1 [Example 9, 4-(6-(4-(4-(methylamino)piperidine-1-carbonyl)phenyl)imidazo[1,2-a]pyrazin-3-yl)benzonitrile]"
< 1000 nM,< 1000 nM,"CN1CCN(C(=O)c2ccc(-c3cn4c(-c5ccc(C#N)cc5)cnc4cn3)c(O)c2)CC1 [Example 38, 4-(6-(2-hydroxy-4-(4-methylpiperazine-1-carbonyl)phenyl)imidazo[1,2-a]pyrazin-3-yl)benzonitrile]"
< 100 nM,< 100 nM,"CC(=O)NC1CCN(C(=O)c2ccc(-c3ccc4ncc(-c5ccc(C#N)cc5)n4n3)cc2)CC1 [Example 57, N-(1-(4-(3-(4-cyanophenyl)imidazo[1,2-b]pyridazin-6-yl)benzoyl)piperidin-4-yl)acetamide]"
< 100 nM,< 100 nM,"CN1CCN(C(=O)c2ccc(-c3ccc4ncc(-c5ccc(C#N)cc5)n4n3)cc2)CC1=O [Example 69, 4-(6-(4-(4-methyl-3-oxopiperazine-1-carbonyl)phenyl)imidazo[1,2-b]pyridazin-3-yl)benzonitrile]"
< 1000 nM,< 1000 nM,"N#Cc1ccc(-c2cnc3cnc(-c4ccc(C(=O)N5CCOCC5)cc4)cn23)cc1 [Example 7, 4-(6-(4-(morpholine-4-carbonyl)phenyl)imidazo[1,2-a]pyrazin-3-yl)benzonitrile]"
< 100 nM,< 100 nM,"Cc1cc(-c2cn3c(-c4ccc(C#N)cc4)cnc3cn2)ccc1C(=O)N1CCC(C)(N)CC1 [Example 28, 4-(6-(4-(4-amino-4-methylpiperidine-1-carbonyl)-3-methylphenyl)imidazo[1,2-a]pyrazin-3-yl)benzonitrile]"
< 100 nM,< 100 nM,"N#Cc1ccc(-c2cnc3ccc(-c4ccc(C(=O)N5CCC(N)CC5)cc4)nn23)cc1 [Example 56, 4-(6-(4-(4-aminopiperidine-1-carbonyl)phenyl)imidazo[1,2-b]pyridazin-3-yl)benzonitrile]"
< 100 nM,< 100 nM,"CN1CCN(C2(C)CCN(C(=O)c3ccc(-c4ccc5ncc(-c6ccc(C#N)cc6)n5c4)cc3)CC2)CC1 [Example 164, 4-(6-(4-(4-methyl-4-(4-methylpiperazin-1-yl)piperidine-1-carbonyl)phenyl)imidazo[1,2-a]pyridin-3-0)benzonitrile]"
< 100 nM,< 100 nM,"N#Cc1ccc(-c2cnc3ccc(-c4ccc(C(=O)N5CCOCC5)c(O)c4)cn23)cc1 [Example 167, 4-(6-(3-hydroxy-4-(morpholine-4-carbonyl)phenyl)imidazo[1,2-a]pyridin-3-yl)benzonitrile]"
< 100 nM,< 100 nM,"N#Cc1ccc(-c2cnc3ccc(-c4ccc(C(=O)N5CCNCC5)cc4)nn23)cc1 [Example 65, 4-(6-(4-(piperazine-1-carbonyl)phenyl)imidazo[1,2-b]pyridazin-3-yl)benzonitrile]"
< 1000 nM,< 100 nM,"CC1(N)CCN(C(=O)c2ccc(-c3cn4c(-c5ccc(C#N)cc5)cnc4cn3)cc2)CC1 [Example 23, 4-(6-(4-(4-amino-4-methylpiperidine-1-carbonyl)phenyl)imidazo[1,2-a]pyrazin-3-yl)benzonitrile Hydrochloride Salt]"
< 1000 nM,< 1000 nM,"CC(=O)Nc1cc(-c2ccc3ncc(-c4ccc(C#N)cc4)n3c2)ccc1C(=O)N1CCN(C)CC1 [Example 149, N-(5-(3-(4-cyanophenyl)imidazo[1,2-a]pyridin-6-yl)-2-(4-methylpiperazine-1-carbonyl)phenyl)acetamide]"

SMILES,IC50 (MNK1),IC50 (MNK2)
"COC1(C)CCN(C(=O)c2ccc(-c3ccc4ncc(-c5ccc(C#N)cc5)n4c3)cc2)CC1 [Example 172, 4-(6-(4-(4-methoxy-4-methylpiperidine-1-carbonyl)phenyl)imidazo[1,2-a]pyridin-3-yl)benzonitrile]",< 100 nM,< 100 nM
"Cc1cc2ncc(-c3ccc(C#N)cc3)n2cc1-c1ccc(C(=O)N2CCC(C)(N)CC2)cc1 [Example 137, 4-(6-(4-(4-amino-4-methylpiperidine-1-carbonyl)phenyl)-7-methylimidazo[1,2-a]pyridin-3-yl)benzonitrile]",< 1000 nM,< 100 nM
CC(=O)N1CCN(C(=O)c2ccc(-c3ccn4ncc(-c5ccc(C#N)cc5)c4n3)cc2)CC1 [Example 184],< 100 nM,< 100 nM
